The source made the active and inactive calls. How the calls were made is not given here.
Molecular target: Small ubiquitin-related modifier 1 (Homo sapiens) (UniProt P63165)
Assay: SUMO1 protein interaction blockers, potency – biochemical, fluorescence polarization, uHTS hits, dose response (AID 624382)
Details: SUMO1 peptide binding

Chain of Small ubiquitin-related modifier 1 (Homo sapiens) (P63165 whole entry, looked up): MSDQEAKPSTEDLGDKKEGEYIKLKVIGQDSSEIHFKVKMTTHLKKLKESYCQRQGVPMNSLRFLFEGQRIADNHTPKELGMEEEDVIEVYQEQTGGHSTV

Compound	IC50
C[c-]1[c-](C)[c-](C)[c-](C)[c-]1C.[Fe].c1cc2nccc(N3CCCC3)[c-]2c1 (stereo not drawn)	11.9 µM
CCN(CC)P(=O)(NC(=O)C(Cl)(Cl)Cl)N(CC)CC.[Cl-].[Cl-].[Cl-].[Nd+3]	> 66.6 µM (inactive)
C=Cc1c(C)c2cc3[nH]c(cc4nc(cc5nc(cc1[nH]2)C(C)=C5CCC(=O)O)C(CCC(=O)O)=C4C)c(C)c3C=C	> 66.6 µM (inactive)

Reference: PubChem BioAssay AID624382 (Sanford-Burnham Center for Chemical Genomics, 2012)
